Among the data in patent US6548495B2, “Dihydro-benzo [B] [1,4] diazepin-2-one derivatives” (Hoffmann-La Roche Inc., priority 2002, dated 2003) are Ki and melting point values, retold here.

The target of data set [1] is T1, recombinant rat mGluR2 expressed in CHO cells (Rattus norvegicus, UniProt P31421).
T1 construct: expressed in transfected cells; host or cells: CHO cells, stably transfected with pcD1mGR2 (pcDNA I-amp), G-418 selected; membranes used
Nature of the data set: [3H]-LY354740 binding on mGlu2 transfected CHO cell membranes (displacement binding assay). The conditions noted are these: displacement of 10 nM [3H]-LY354740, membranes of CHO cells expressing rat mGlu2, room temperature, 1 hour; Ki calculated from IC50 with the Cheng and Prusoff equation. From the text:
In Table I below some specific Ki values of preferred compounds of the invention are presented. These values were obtained by indirect measurement of the affinity of the compounds for the recombinant rat mGluR2 expressed in CHO cells using a displacement binding assay with 3H-LY354740.
[^3H]-LY354740 Binding on mGlu2 Transfected CHO Cell Membranes
Transfection and Cell Culture
cDNA encoding the rat mGlu2 receptor protein in pBluescript II was obtained from Prof. S. Nakanishi (Kyoto, Japan), and subcloned into the eukaryotic expression vector pcDNA I-amp from Invitrogen (NV Leek, The Netherlands). This vector construct (pcD1mGR2) was co-transfected with a psvNeo plasmid encoding the gene for neomycin resistance, into CHO cells by a modified calcium phosphate method described by Chen & Okayama (1988). The cells were maintained in Dulbecco's Modified Eagle medium with reduced L-glutamine (2 mM final concentration) and 10% dialysed foetal calf serum from Gibco BRL (Basel, Switzerland). Selection was made in the presence of G-418 (1000 ug/mL final). Clones were identified by reverse transcription of 5 μg total RNA, followed by PCR using mGlu2 receptor specific primers 5′-[…]-3′ and 5′-[…]-3′ in 60 mM Tris HCl (pH 10), 15 mM (NH4)2SO4, 2 mM MgCl2, 25 units/mL Taq Polymerase with 30 cycles annealing at 60° C. for 1 min., extention at 72° C. for 30 s, and 1 min. 95° C. denaturation.
Cells, cultured as above, were harvested and washed three times with cold PBS and frozen at −80° C. The pellet was resuspended in cold 20 mM HEPES-NaOH buffer containing 10 mM EDTA (pH 7.4), and homogenised with a polytron (Kinematica, AG, Littau, Switzerland) for 10 s at 10000 rpm. After centrifugation for 30 min. at 4° C., the pellet was washed once with the same buffer, and once with cold 20 mM HEPES-NaOH buffer containing 0.1 mM EDTA, (pH 7.4). Protein content was measured using the Pierce method (Socochim, Lausanne, Switzerland) using bovine serum albumin as standard.
After thawing, the membranes were resuspended in cold 50 mM Tris-HCl buffer containing 2 mM MgCl2 and 2 mM CaCl2, (pH 7) (binding buffer). The final concentration of the membranes in the assays was 25 μg protein/mL. Inhibition experiments were performed with membranes incubated with 10 nM [^3H]-LY354740 at room temperature, for 1 hour, in presence of various concentrations of the compound to be tested. Following the incubations, membranes were filtered onto Whatmann GF/C glass fiber filters and washed 5 times with cold binding buffer. Non specific binding was measured in the presence of 10 μM DCG IV. After transfer of the filters into plastic vials containing 10 mL of Ultima-gold scintillation fluid (Packard, Züirich, Switzerland), the radioactivity was measured by liquid scintillation in a Tri-Carb 2500 TR counter (Packard, Züirich, Switzerland).
The inhibition curves were fitted with a four parameter logistic equation giving IC50 values, and Hill coefficients and the Ki values were calculated using the Cheng and Prusoff equation (Cheng, Y. and Prusoff, W. H., Biochem. Pharmacol. 1973, 22, 3099-3108). A small Ki value expresses high affinity of the compound towards the receptor.

Some results are limits rather than exact numbers.

T1 sequence (P31421 19-872): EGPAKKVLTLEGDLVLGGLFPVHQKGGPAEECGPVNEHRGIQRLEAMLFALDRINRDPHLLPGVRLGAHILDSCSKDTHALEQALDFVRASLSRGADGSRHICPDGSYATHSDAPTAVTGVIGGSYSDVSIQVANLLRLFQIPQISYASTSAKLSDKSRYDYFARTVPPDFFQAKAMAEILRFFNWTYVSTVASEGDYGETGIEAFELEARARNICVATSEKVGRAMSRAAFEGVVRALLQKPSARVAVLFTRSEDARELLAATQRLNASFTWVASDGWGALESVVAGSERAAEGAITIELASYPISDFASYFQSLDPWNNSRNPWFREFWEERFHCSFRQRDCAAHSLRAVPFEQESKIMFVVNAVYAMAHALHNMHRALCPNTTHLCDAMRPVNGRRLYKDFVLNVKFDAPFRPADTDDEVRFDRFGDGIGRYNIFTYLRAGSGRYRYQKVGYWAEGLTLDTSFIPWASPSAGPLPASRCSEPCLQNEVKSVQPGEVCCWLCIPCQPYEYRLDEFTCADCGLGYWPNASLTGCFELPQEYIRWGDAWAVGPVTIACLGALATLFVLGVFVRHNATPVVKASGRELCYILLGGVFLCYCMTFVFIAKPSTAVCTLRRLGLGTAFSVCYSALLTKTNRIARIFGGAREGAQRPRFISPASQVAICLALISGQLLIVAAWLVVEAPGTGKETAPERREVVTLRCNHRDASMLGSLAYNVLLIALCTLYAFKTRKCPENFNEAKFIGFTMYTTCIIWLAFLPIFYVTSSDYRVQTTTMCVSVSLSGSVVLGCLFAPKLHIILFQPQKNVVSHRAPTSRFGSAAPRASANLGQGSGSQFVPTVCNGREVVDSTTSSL

The Ki is a dissociation constant, usually derived from enzyme kinetics or from competition with a known ligand. In general, melting point refers to the temperature, or range, at which the solid turns liquid. The molecule `O=C1CC(c2cccc(-n3nncc3CO)c2)=Nc2cc(N3CCOCC3)c(C(F)(F)F)cc2N1` [Example 1, 4-[3-(5-Hydroxymethyl-[1,2,3]triazol-1-yl)-phenyl]-7-morpholin-4-yl-8-trifluoromethyl-1,3-dihydro-benzo[b][1,4]diazepin-2-one] gave a melting point of 200 °C. Further, the Ki in data set [1] is 74 nM.

For the molecule `N#Cc1cc(C2=Nc3cc(N4CCOCC4)c(C(F)(F)F)cc3NC(=O)C2)ccn1` [Example 2, 4-(8-Morpholin-4-yl-4-oxo-7-trifluoromethyl-4,5-dihydro-3H-benzo[b][1,4]diazepin-2-yl)-pyridine-2-carbonitrile], the melting point is 220 °C. The inhibition constant (Ki) in data set [1] is 20 nM.

Molecule `N#Cc1cccc(C2=Nc3ccc(-n4cccc4)cc3NC(=O)C2)c1` [Example 4, 3-(4-oxo-7-Pyrrol-1-yl-4,5-dihydro-3H-benzo[b][1,4]diazepin-2-yl)-benzonitrile] came in with a melting point of 219 °C. In addition, the Ki in data set [1] is 35 nM.

Consider `N#Cc1cccc(C2=Nc3cc(I)c(-n4cccc4)cc3NC(=O)C2)c1` [Example 9, 3-(8-Iodo-4-oxo-7-pyrrol-1-yl-4,5-dihydro-3H-benzo[b][1,4]diazepin-2-yl)-benzonitrile], for which the melting point is 215 °C. Further, the Ki in data set [1] was 75 nM.

For the molecule `N#Cc1cccc(C2=Nc3ccc(-n4ccc(-c5ccccc5)c4)cc3NC(=O)C2)c1` [Example 12, 3-[4-oxo-7-(3-Phenyl-pyrrol-1-yl)-4,5-dihydro-3H-benzo[b][1,4]diazepin-2-yl]-benzonitrile], in data set [1], the Ki is 75 nM.

Take `O=C1CC(c2cccc(-n3ccnc3)c2)=Nc2ccc(-n3cccc3)cc2N1` [Example 16, 4-(3-Imidazol-1-yl-phenyl)-8-pyrrol-1-yl-1,3-dihydro-benzo[b][1,4]diazepin-2-one]: the melting point came to 220 °C. Besides, in data set [1], the Ki was 25 nM.

As for `COc1cc2c(cc1-n1cccc1)NC(=O)CC(c1cccc(C#N)c1)=N2` [Example 17, 3-(8-Methoxy-4-oxo-7-pyrrol-1-yl-4,5-dihydro-3H-benzo[b][1,4]diazepin-2-yl)-benzonitrile], in data set [1], the Ki was 44 nM.

`COc1cc2c(cc1-n1cccc1C(C)(C)C)NC(=O)CC(c1cccc(C#N)c1)=N2` [Example 18, 3-[7-(2-tert.-Butyl-pyrrol-1-yl)-8-methoxy-4-oxo-4,5-dihydro-3H-benzo[b][1,4]diazepin-2-yl]-benzonitrile]: the melting point was > 250 °C. The Ki in data set [1] was 80 nM.

Take `O=C1CC(c2cccc(-c3nc(CO)cs3)c2)=Nc2ccc(-n3cccc3)cc2N1` [Example 20, 4-[3-(4-Hydroxymethyl-thiazol-2-yl)-phenyl]-8-pyrrol-1-yl-1,3-dihydro-benzo[b][1,4]diazepin-2-one]: the melting point lay within 238 to 240 °C. Further, the Ki in data set [1] is 28 nM.

Turning to `O=C1CC(c2cccc(-n3ncnc3CNC3CC3)c2)=Nc2cc(Cl)c(C(F)(F)F)cc2N1` [Example 66, 7-Chloro-4-[3-(5-cyclopropylaminomethyl-[1,2,4]triazol-1-yl)-phenyl]-8-trifluoromethyl-1,3-dihydro-benzo[b][1,4]diazepin-2-one], the melting point came to 191 °C.

`Cc1cc2c(cc1C(F)(F)F)NC(=O)CC(c1cccc(-n3nncc3CO)c1)=N2` [Example 68, 4-[3-(5-Hydroxymethyl-[1,2,3]triazol-1-yl)-phenyl]-7-methyl-8-trifluoromethyl-1,3-dihydro-benzo[b][1,4]diazepin-2-one]: the melting point is 215 °C.

The molecule `Cc1cc(-c2cccc(C3=Nc4cc(C)c(C(F)(F)F)cc4NC(=O)C3)c2)on1` [Example 70, 7-Methyl-4-[3-(3-methyl-isoxazol-5-yl)-phenyl]-8-trifluoromethyl-1,3-dihydro-benzo[b][1,4]diazepin-2-one] yielded a melting point of 240 °C.

`O=C1CC(c2cccc(-n3cncn3)c2)=Nc2cc(Cl)c(C(F)(F)F)cc2N1` [Example 71, 7-Chloro-4-(3-[1,2,4]triazol-1-yl-phenyl)-8-trifluoromethyl-1,3-dihydro-benzo[b][1,4]diazepin-2-one]: the melting point is 258 °C.

Regarding `O=C1CC(c2cccc(-n3ccnc3)c2)=Nc2cc(Cl)c(C(F)(F)F)cc2N1` [Example 72, 7-Chloro-4-(3-imidazol-1-yl-phenyl)-8-trifluoromethyl-1,3-dihydro-benzo[b][1,4]diazepin-2-one], the melting point turned out to be 225 °C.

Turning to `O=C1CC(c2cccc(-n3ccnn3)c2)=Nc2cc(Cl)c(C(F)(F)F)cc2N1` [Example 73, 7-Chloro-4-(3-[1,2,3]triazol-1-yl-phenyl)-8-trifluoromethyl-1,3-dihydro-benzo[b][1,4]diazepin-2-one], the melting point came to 219 °C.

Molecule `Cc1cc2c(cc1C(F)(F)F)NC(=O)CC(c1cccc(-n3cncn3)c1)=N2` [Example 74, 7-Methyl-4-(3-[1,2,4]triazol-1-yl-phenyl)-8-trifluoromethyl-1,3-dihydro-benzo[b][1,4]diazepin-2-one] registered a melting point of 241 °C.

The molecule `Cc1cc2c(cc1C(F)(F)F)NC(=O)CC(c1cccc(-n3ccnn3)c1)=N2` [Example 76, 7-Methyl-4-(3-[1,2,3]triazol-1-yl-phenyl)-8-trifluoromethyl-1,3-dihydro-benzo[b][1,4]diazepin-2-one] came in with a melting point of 237 °C.

Consider `CC(=O)OCc1coc(-c2cccc(C3=Nc4ccc(-n5cccc5)cc4NC(=O)C3)c2)n1` [Example 78, Acetic Acid 2-[3-(4-oxo-7-Pyrrol-1-yl-4,5-dihydro-3H-benzo[b][1,4]diazepin-2-yl)-phenyl]-oxazol-4-ylmethyl Ester], for which the melting point is 206 to 207 °C.

`CNCc1coc(-c2cccc(C3=Nc4ccc(-n5cccc5)cc4NC(=O)C3)c2)n1` [Example 79, 4-[3-(4-Methylaminomethyl-oxazol-2-yl)-phenyl]-8-pyrrol-1-yl-1,3-dihydro-benzo[b][1,4]diazepin-2-one] yielded a melting point of 182 to 183 °C.

In turn, `CN(C)Cc1coc(-c2cccc(C3=Nc4ccc(-n5cccc5)cc4NC(=O)C3)c2)n1` [Example 80, 4-[3-(4-Dimethylaminomethyl-oxazol-2-yl)-phenyl]-8-pyrrol-1-yl-1,3-dihydro-benzo[b][1,4]diazepin-2-one] displayed a melting point of 172 to 175 °C.

Consider `O=C1CC(c2cccc(-c3nc(CN4CCOCC4)co3)c2)=Nc2ccc(-n3cccc3)cc2N1` [Example 81, 4-[3-(4-Morpholin-4-ylmethyl-oxazol-2-yl)-phenyl]-8-pyrrol-1-yl-1,3-dihydro-benzo[b][1,4]diazepin-2-one], for which the melting point lay in the range of 166 to 167 °C.

For the molecule `N#Cc1cc(C2=Nc3ccc(-n4cccc4)cc3NC(=O)C2)ccn1` [Example 82, 4-(4-oxo-7-Pyrrol-1-yl-4,5-dihydro-3H-benzo[b][1,4]diazepin-2-yl)-pyridine-2-carbonitrile], the melting point was in the range of 243 to 244 °C.

For the molecule `Cc1cc2c(cc1C(F)(F)F)NC(=O)CC(c1cccc(-c3ncoc3C)c1)=N2` [Example 83, 7-Methyl-4-[3-(5-methyl-oxazol-4-yl)-phenyl]-8-trifluoromethyl-1,3-dihydro-benzo[b][1,4]diazepin-2-one], the melting point was 241 to 242 °C.
